Non-standard residues stand in square brackets, D forms with d. Residues, ends and D or L forms follow the SMILES beside them. *: point of attachment. Phe(F5) = N[C@@H](Cc1c(F)c(F)c(F)c(F)c1F)C(=O)O; hArg = N=C(N)NCCCC[C@H](N)C(=O)O; 12Ado = NCCCCCCCCCCCC(=O)O; Nle = CCCC[C@H](N)C(=O)O; Orn = NCCC[C@H](N)C(=O)O; Abu = CC[C@H](N)C(=O)O; PhAc = O=C(Cc1ccccc1)*
Test system: mouse lung fibroblasts (Mlg 2908)
Experiment: Cellular respiration, Seahorse XF Cell Mito Stress Test
Type: cell-based
Method: Lung fibroblasts. Newborn mouse lung fibroblasts (Mlg 2908) were obtained from the American Type Culture Collection, Manassas, Va. and cultured in Eagle's minimal essential medium. Cells were grown in 6-well plates before incubation with 1 or 5 μM MIA-602 or vehicle, RNA isolation, and oxygen consumption measurements.
Cellular respiration. The effects of MIA-602 on mouse lung fibroblast oxygen consumption was measured using the Agilent Seahorse XF Cell Mito Stress Test (Agilent Technologies, Santa Clara, Calif.) (Divakaruni A, Paradyse A, Ferrick D, Murphy A, Jastroch M (2014). Methods in Enzymology 547:309-354). Fibroblasts were incubated with vehicle, 1 or 5 μM MIA-602 for 24 hours before measurement of oxygen consumption. One day before assay 80,000 fibroblasts were seeded into Seahorse 24-well plates (n=6 wells per condition). Basal respiration was established and oligomycin, FCCP and rotenone plus antimycin A were added sequentially to measure ATP production, uncoupled respiration; and, non-mitochondrial oxygen consumption (Wangpaichitr, Wu C, Li Y, Nguyen D, Kandemir H, Shah S, Chen S, Feun L, Prince J, Kuo M, Savaraj N (2017). Oncotarget 8(30):49275-49292).

## CCCC[C@H](NC(=O)[C@@H](NC(=O)[C@H](CC(=O)O)NC(=O)[C@H](CCC(N)=O)NC(=O)[C@H](CC(C)C)NC(=O)[C@H](CC(C)C)NC(=O)[C@H](CCCN)NC(=O)[C@H](Cc1c[nH]cn1)NC(=O)[C@H](C)NC(=O)[C@H](CO)NC(=O)[C@H](CC(C)C)NC(=O)[C@H](CCC(N)=O)NC(=O)[C@H](CC)NC(=O)[C@H](CC(C)C)NC(=O)[C@@H](NC(=O)[C@H](CCCN)NC(=O)[C@H](Cc1c[nH]cn1)NC(=O)[C@H](Cc1ccc(OC)cc1)NC(=O)[C@H](CCCCNC(=N)N)NC(=O)[C@H](C)NC(=O)[C@@H](NC(=O)[C@H](Cc1c(F)c(F)c(F)c(F)c1F)NC(=O)[C@@H](NC(=O)[C@H](C)NC(=O)[C@H](CC(=O)O)NC(=O)[C@@H](CCCNC(=N)N)NC(=O)[C@H](Cc1ccc(O)cc1)NC(=O)CCCCCCCCCCCNC(=O)Cc1ccccc1)[C@@H](C)CC)[C@@H](C)O)C(C)C)[C@@H](C)CC)C(=O)N[C@H](CCCNC(=N)N)C(=O)N[C@@H](CCCCNC(=N)N)C(N)=O [MIA-602, PhAC-Ada, Tyr D-Arg, Asp, Ala, Ile, 5FPhe, Thr, Ala, Har, Tyr(Me), His, Orn, Val, Leu, Abu, Gin, Leu, Ser, Ala, His, Om, Leu, Leu, Gin, Asp, Ile; Nle, D-Arg, Har NH2, reference compound] ({PhAc-12Ado}-Y[dR]DAI[Phe(F5)]TA[hArg]Y(Me)H[Orn]VL[Abu]QLSAH[Orn]LLQDI[Nle][dR][hArg]-NH2)
5 μM for 24 hours, vs vehicle
  basal respiration / basal oxygen consumption (in words): increased
  maximal, uncoupled respiration (after FCCP) (in words): increased
  spare respiratory capacity (in words): increased
1 and 5 μM for 24 hours
  non-mitochondrial respiration (after antimycin A and rotenone) (in words): appeared to increase

From patent US20210395327A1, “Growth Hormone-Releasing Hormone Antagonists and Uses Thereof” (United States Government As Represented By The Department …, priority 2019, published 2021)
